Some test systems named below: HCT-116; HT-29; Hs-578T; 786-0; UO-31; PC-3; RPMI-8226; ACHN; SNB-75; NCI/ADR-RES; UACC-62; OVCAR-8; SK-MEL-2; CAKI-1; KM12; OVCAR-4; A498; SR; UACC-257.
Common to all, as to experiment: inhibition of tumour cell growth, NCI panel, 48 h

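Dose response: 5 concentrations. Exposure: 48 h. Format: 96-well plates. Endpoint: linear interpolation; highest concentration if not reached. GI50 marks 50% less growth.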 Calls of active or inactive are those of the source. Rule as the data show it: active = GI50 up to about 1.1 µM and inactive = higher.

With `O=C(NNc1ccccc1)c1ccc(Cl)c(Cl)c1`, the GI50 with HCT-116 is 14 µM (inactive); in the assay with HT-29, 15.7 µM (inactive); with Hs-578T, 28.5 µM (inactive); in the assay with 786-0 it was 41 µM (inactive); in the assay on UO-31, 2.44 µM (inactive); with PC-3, 25.2 µM (inactive). Moreover, the GI50 in the assay with RPMI-8226 is 0.603 µM (active); in the assay with ACHN, 11.3 µM (inactive); with SNB-75 it was 25.8 µM (inactive); in the assay with NCI/ADR-RES, 5.25 µM (inactive); in the assay with UACC-62 it was 0.0667 µM (active); with OVCAR-8, 21.2 µM (inactive). Moreover, the GI50 was 0.875 µM (active) in the assay on SK-MEL-2; 0.259 µM (active) with CAKI-1; 0.114 µM (active) in the assay on KM12; 16.2 µM (inactive) in the assay on OVCAR-4; 5.2 µM (inactive) in the assay with A498; 20.3 µM (inactive) in the assay on SR.
In the case of `COc1cc(C)c2c(=O)c3ccccc3n(C)c2c1`, the GI50 in the assay on HCT-116 was 18.5 µM (inactive); in the assay with HT-29, 11.8 µM (inactive); in the assay on Hs-578T, 40.4 µM (inactive); in the assay on 786-0 it was 10.6 µM (inactive); in the assay on PC-3, 28.8 µM (inactive); with RPMI-8226, > 10 µM (inactive). Besides, the GI50 with ACHN is 24.3 µM (inactive); in the assay with SNB-75 it was 26.4 µM (inactive); with NCI/ADR-RES, 30.5 µM (inactive); in the assay with UACC-62 it was 20.3 µM (inactive); in the assay on OVCAR-8 it was 22.6 µM (inactive); in the assay with SK-MEL-2 it was 36.4 µM (inactive). Besides, the GI50 was 31.3 µM (inactive) in the assay on CAKI-1; 30.3 µM (inactive) with UACC-257; 23.9 µM (inactive) with KM12; 19.7 µM (inactive) in the assay with OVCAR-4; 26.5 µM (inactive) with A498; 15.6 µM (inactive) in the assay with SR.
As for `O=C(O)Cc1ccc2nc(COC(=O)c3ccccc3)sc2c1`, the GI50 is 83.8 µM (inactive) in the assay on HCT-116; > 100 µM (inactive) in the assay with Hs-578T; > 100 µM (inactive) in the assay with 786-0; > 100 µM (inactive) with UO-31; > 100 µM (inactive) in the assay on PC-3; > 100 µM (inactive) in the assay with RPMI-8226. Also, the GI50 with ACHN, in the assay with SNB-75, in the assay on NCI/ADR-RES, with UACC-62, with OVCAR-8 and in the assay on SK-MEL-2 was > 100 µM (inactive) each time. In addition, the GI50 in the assay on CAKI-1, in the assay on UACC-257, in the assay on KM12, in the assay on OVCAR-4, with A498 and in the assay with SR was > 100 µM (inactive) in each case.
On to `C[C@H](Nc1nc(N)c(N=O)c(=O)n1C)C(=O)O`, for which the GI50 in the assay with HCT-116, in the assay with HT-29, in the assay with Hs-578T, in the assay with 786-0, in the assay on PC-3 and in the assay on RPMI-8226 was > 10 µM (inactive) each time. Also, the GI50 with ACHN, with SNB-75, with NCI/ADR-RES, in the assay with UACC-62, in the assay with OVCAR-8 and in the assay with SK-MEL-2 was > 10 µM (inactive) in each case. In addition, the GI50 with CAKI-1, with UACC-257, in the assay on KM12, with OVCAR-4, in the assay on A498 and in the assay with SR was > 10 µM (inactive) throughout.

(Values after ChEMBL document CHEMBL1201862, “PubChem BioAssay data set” (2004).)
